Reference: patent US11192932B2, “Heparin-binding domain of IGFBP-2 in the treatment of metabolic disorders” (Amolyt Pharma, priority 2018, dated 2021)
“Also recorded” adds a separate entry of the source. No end group written: not given here. *: point of attachment. Stearoyl = CCCCCCCCCCCCCCCCCC(=O)*

Key:
[1] = test system: C2C12 mouse skeletal muscle myotubes; experiment: 3H-2-deoxyglucose uptake by fully differentiated C2C12 myotubes; format: cell-based
Method: In particular: HBD1 SEQ ID NO: 73 (C18:0-HLGLEEPKK) at 0.8 μM, 1.5 μM, and 2.3 μM; or 1.5 μM SEQ ID NO: 73 (C18:0-HLGLEEPKK) for 2, 4, and 16 hours prior to testing glucose uptake.
The studies were performed using cultured, fully differentiated C2C12 mouse skeletal muscle myotubes. The cells were prepared by growing C2C12 cells to confluent density in DMEM with 25 mM glucose and 10% fetal bovine serum in 24 well plates. At this time, the medium was changed to differentiation medium (DMEM with 25 mM glucose and 2% horse serum) for 6 days with medium changed every third day. The various treatments were diluted in serum-free medium and, after washing the cells with serum-free medium, were added to the cells and incubated for 2 hours or alternative times, depending on the treatment. At the end of incubation period, the media was removed and 1.0 ml of glucose-free Krebs ringer bicarbonate buffer (pH 7.4), containing the same treatments, was added and incubation continued for 10 minutes. At the end of the 10 min incubation period, ^3H-2-deoxyglucose ([…]) (specific activity=8 Ci/mmole) was added directly to all wells, and the incubation continued for an additional […]. The wells were then rinsed three times with ice cold phosphate buffered saline, the cells were extracted with 0.5 N NaOH, and the ^3H-2-deoxyglucose content of the cell lysate quantitated by scintillation counting.

AMPK = AMPK phosphorylation (immunoblot anti-pAMPK T172) in C2C12 myotubes; format: cell-based, mouse; conditions: C2C12 myotubes, peptide incubated 8 hours (FIG. 7)
Method: In particular: HBD1 SEQ ID NO: 73 (C18:0-HLGLEEPKK). The AMPK pathway is both insulin and IGF1 independent, but acts ultimately to induce GLUT4 translocation to the cell membrane to facilitate the uptake and metabolism of glucose.
(§1) For signaling studies the cells were prepared the same way except 6-well plates were used. After 6 days incubation in differentiating medium, the cells were washed with serum-free medium. The various treatments were then added in serum free medium containing 0.1% BSA. HBD1 peptides were added and incubated for 8 hours. When utilizing IGF-I, incubation was for 15 minutes after IGF-1 addition. Following incubation the cells were lysed in RIPA buffer and sonicated. The cell lysate was centrifuged and the supernatant analyzed for either Akt or AMPK by SDS PAGE using a 10% gel followed by immunoblotting with the appropriate antibody.
To examine further the intracellular transduction pathways utilized by the HBD1 peptides, following treatment with HBD1 peptide SEQ ID NO: 73 (C18:0-HLGLEEPKK), cell lysate proteins, were separated by SDS PAGE and immunoblotted with anti-pAMPK T172.

ob/ob mice = experiment: Glucose telemetry and IPGTT in glucose-telemetered ob/ob mice, 28 days of treatment; format: in vivo, mouse; conditions: for glucose intolerance (3-hour IPGTT profile): glucose telemetered ob/ob mice, 1 and 3 mg/kg s.c. twice daily, 28 days, glucose 1 g/kg i.p., vs vehicle; for 16-hour mean blood glucose levels: day 27, normal fed conditions, vs baseline (Day -1) and vehicle
Method: FIG. 2A: 3-hour intraperitoneal glucose tolerance test profiles after 28 days of acylated HBD1 (3-11) fragment treatment. (n=5-8 in each group; p value <0.0001 at both doses vs VHL), Two-way ANOVA with multiple comparison, ****p<0.0001; FIG. 2B: fasting blood glucose levels (average value within 10 min prior to IPGTT) after 28 days of acylated HBD1 (3-11) fragment treatment. (n=5-8 in each group; p value <0.005 at the 3 mg/kg dose vs VHL), Unpaired two-tailed t-test vs VHL, ***p<0.005; FIG. 2C: Areas under the curve of the 3-hour intraperitoneal glucose tolerance test profiles after 28 days of acylated HBD1 (3-11) fragment treatment. (n=5-8 in each group), Unpaired two-tailed t-test vs VHL,*p<0.05, ****p<0.0001.
FIG. 3A: 16-hour mean blood glucose levels before (Day −1) and after 27 days of acylated HBD1 (3-11) fragment treatment. (n=5-8 in each group; **p value <0.001 at the 3 mg/kg dose vs VHL); FIG. 3B: Change from baseline in 16-hour mean blood glucose level after 27 days of acylated HBD1 (3-11) fragment treatment. (n=5-8 in each group; **p value <0.01 at the 3 mg/kg dose vs VHL).
To further assess the effects of HBD1 peptides on glucose and insulin metabolisms, basal blood glucose and glucose response to an intraperitoneal glucose tolerance test (IPGTT) were assessed in glucose-telemetered obese ob/ob mice after twice daily administration of HBD peptides for 28 consecutive days. Implantation of glucose telemetry device (HD-XG, Data Science International) was carried out according to known protocols.
A dose of HBD peptide fragment of SEQ ID NO: 73 (C18:0-HLGLEEPKK) was administered twice daily at 8-hour±1 hour interval between the two daily administrations. 24 V-Lepob/J (Ob/Ob) male mice (The Jackson Laboratory, Farmington, Conn. USA) were administered subcutaneously with vehicle (NaCl 0.9%) (Control group) or with the peptide at 1 and 3 mg/kg (Test groups) (n=5-8 animals for each group) twice daily for 28 days. The first day of dosing was designated as Day 1. Bolus injection was carried out using a sterile syringe and the needle was introduced subcutaneously, 2 to 4 injection sites were used in rotation. The hair of the animals on the injection area was clipped prior to the first injection and then as necessary during the treatment period. The volume administered was 5 mL/kg/administration. Individual dose volumes were calculated using the latest body weight. On day 27, 16-hour mean blood glucose levels were assessed in normal fed conditions. On day 28, fasted (4 hours) mice were injected intraperitoneally with glucose at 1 g/kg. Plasma blood glucose profile (expressed as mg/dL) was recorded every minute up to 3-hour post glucose injection.
Intraperitoneal glucose tolerance test (IPGTT)—On the morning of the IGPTT day (day 28), 2-hour fasted animals were treated with vehicle or with the HBD fragment. Glucose solution was administered 2 hours±15 minutes post-dosing (vehicle or a peptide as set forth in SEQ ID NO: 73 (C18:0-HLGLEEPKK). Blood glucose was monitored from 10 minutes before (fasting condition) to 3-hour post-glucose challenge. Food was re-introduced 4 hours post-glucose challenge. The second treatment of the day (the HBD fragment or vehicle) was performed 2 hours after food re-introduction.

Akt = Akt phosphorylation (immunoblot anti-Akt pS473) in C2C12 myotubes; format: cell-based, mouse; conditions: peptide incubated 8 hours (FIG. 6)
Method: In particular: HBD1 SEQ ID NO: 73 (C18:0-HLGLEEPKK). The Akt pathway is utilized by both insulin and IGF1 to ultimately induce GLUT4 translocation to the cell membrane to facilitate the uptake and metabolism of glucose.
as §1
To examine the intracellular transduction pathways utilized by the HBD1 peptides, following treatment with HBD1 peptide SEQ ID NO: 73 (C18:0-HLGLEEPKK), cell lysate proteins were separated by SDS PAGE and immunoblotted with anti-Akt pS473 antibodies.

C18:0-HLGLEEPKK (Stearoyl-HLGLEEPKK) [SEQ ID NO: 73]
glucose uptake by C2C12 myotubes, dose dependence (FIG. 5A) ([1]; 0.8 μM, 1.5 μM and 2.3 μM, vs vehicle-treated controls): stimulated increased glucose uptake as compared with vehicle-treated controls in both a dose- and time-dependent manner
glucose uptake by C2C12 myotubes, time dependence (FIG. 5B) ([1]; 1.5 μM for 2, 4 and 16 hours): time-dependent manner
glucose uptake by C2C12 myotubes with insulin, separate experiment (FIG. 8) ([1]; 1.5 μM plus insulin): act additively with insulin; also recorded: in an additive manner with insulin
glucose uptake by C2C12 myotubes, separate experiment (FIG. 8) ([1]; 1.5 μM, alone): increased glucose uptake
glucose uptake by C2C12 myotubes in combination with insulin (FIG. 5C) ([1]; peptide plus insulin): additive increase in glucose uptake
phosphorylated AMPK (T172) (AMPK): dose-dependent increase in phosphorylated AMPK; also recorded: dose-dependent phosphorylation (activation) of the AMPK pathway
glucose intolerance (3-hour IPGTT profile) (ob/ob mice): improved glucose intolerance in a dose-dependent manner
glucose intolerance (3-hour IPGTT profile) (ob/ob mice; listed as acylated HBD1 (3-11) fragment): improves glucose intolerance
effect on fasting glucose levels and glucose excursion following IPGTT at the high dose (ob/ob mice; ob/ob mice, 3 mg/kg twice daily, 4 weeks): marked effect
glucose excursion following IPGTT (ob/ob mice; ob/ob mice, after 4 weeks (28 days), 1 and 3 mg/kg twice daily): decreased
fasting glucose levels (ob/ob mice; ob/ob mice, after 4 weeks (28 days), average within 10 min prior to IPGTT, 1 and 3 mg/kg twice daily): decreased fasting glucose levels
16-hour mean blood glucose levels (ob/ob mice; ob/ob mice): markedly decrease 16-hour average blood glucose levels
16-hour mean blood glucose levels (ob/ob mice; ob/ob mice, listed as acylated HBD1 (3-11) fragment): improves glucose intolerance
phosphorylated Akt (pS473) (Akt): dose-related increase in phosphorylated Akt; also recorded: dose-dependent phosphorylation (activation) of the Akt pathway
